Laboratory results published in patent US8895585B2, “Nicotinamide derivative or salt thereof” (FUJIFILM Corporation, priority 2010, dated 2014).

Key:
[1] = target: T1, glutathione S-transferase (GST)-fused full-length human Syk protein (Homo sapiens, UniProt P43405); experiment: Syk enzyme assay; assay type: biochemical; details: Syk enzyme assay, Test Example 1; read-out: IC50 of Syk-inhibitory activity
T1 construct: (GST)-fused full-length human Syk protein; GST (glutathione S-transferase); purchased Carna Biosciences
Method in brief: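 Baculovirus-expressed enzyme (1.2 ng) was preincubated with compound in HEPES pH 7.0/MgCl2/DTT buffer, 2 min shaking then 13 min at room temperature. Biotin-EDPDYEWPSA-NH2 (0.4 μM final) and ATP (27 μM final) were added for 40 min at room temperature. EDTA stop, streptavidin-XL/PT66-K TR-FRET at 615/665 nm gave IC50.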

THP-1 cells = experiment: TNFα generation assay; assay type: cell-based, human; details: Homo sapiens, THP-1, THP-1 cells; Table 22; read-out: IC50 in TNFα generation assay
Method in brief: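 THP-1 cells differentiated to macrophage-like cells with 10 ng/ml IFN-γ for 2 days, preincubated with compound 30 min at room temperature, then cultured 7 h on plates coated with human IgG (10 μg/ml). Secreted TNFα measured by ELISA or AlphaLISA.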

Row | SMILES | IC50 [1] | IC50 (THP-1 cells)
1 | CCc1nn(CC)c2ccc(Nc3nc(N[C@@H]4CCCC[C@@H]4N)c(F)cc3C(N)=O)cc12 [Example 006-452, 6-(((1R,2S)-2-aminocyclohexyl)amino)-2-((1,3-diethyl-1H-indazol-5-yl)amino)-5-fluoronicotinamide] | < 0.01 µM | < 0.065 µM
2 | CCc1nn(CCOC)c2ccc(Nc3nc(N[C@@H]4CCCC[C@@H]4N)c(F)cc3C(N)=O)cc12 [Example 006-453, 6-(((1R,2S)-2-aminocyclohexyl)amino)-2-((3-ethyl-1-(2-methoxyethyl)-1H-indazol-5-yl)amino)-5-fluoronicotinamide] | < 0.01 µM | < 0.065 µM
3 | CCc1nn(CCF)c2ccc(Nc3nc(N[C@@H]4CCCC[C@@H]4N)c(F)cc3C(N)=O)cc12 [Example 006-454, 6-(((1R,2S)-2-aminocyclohexyl)amino)-2-((3-ethyl-1-(2-fluoroethyl)-1H-indazol-5-yl)amino)-5-fluoronicotinamide] | < 0.01 µM | 0.065 to 0.13 µM
4 | CCc1nn(CC(F)F)c2ccc(Nc3nc(N[C@@H]4CCCC[C@@H]4N)c(F)cc3C(N)=O)cc12 [Example 006-455, 6-(((1R,2S)-2-aminocyclohexyl)amino)-2-((1-(2,2-difluoroethyl)-3-ethyl-1H-indazol-5-yl)amino)-5-fluoronicotinamide] | < 0.01 µM | 0.065 to 0.13 µM
5 | CCCc1nn(C)c2ccc(Nc3nc(N[C@@H]4CCCC[C@@H]4N)c(F)cc3C(N)=O)cc12 [Example 006-456, 6-(((1R,2S)-2-aminocyclohexyl)amino)-5-fluoro-2-((1-methyl-3-propyl-1H-indazol-5-yl)amino)nicotinamide] | < 0.01 µM | 0.13 to 0.2 µM
6 | CCCc1nn(CC)c2ccc(Nc3nc(N[C@@H]4CCCC[C@@H]4N)c(F)cc3C(N)=O)cc12 [Example 006-457, 6-(((1R,2S)-2-aminocyclohexyl)amino)-2-((1-ethyl-3-propyl-1H-indazol-5-yl)amino)-5-fluoronicotinamide] | < 0.01 µM | 0.13 to 0.2 µM
7 | CCCc1nn(CCOC)c2ccc(Nc3nc(N[C@@H]4CCCC[C@@H]4N)c(F)cc3C(N)=O)cc12 [Example 006-458, 6-(((1R,2S)-2-aminocyclohexyl)amino)-5-fluoro-2-((1-(2-methoxyethyl)-3-propyl-1H-indazol-5-yl)amino)nicotinamide] | < 0.01 µM | 0.13 to 0.2 µM
8 | CCCc1nn(CCF)c2ccc(Nc3nc(N[C@@H]4CCCC[C@@H]4N)c(F)cc3C(N)=O)cc12 [Example 006-459, 6-(((1R,2S)-2-aminocyclohexyl)amino)-5-fluoro-2-((1-(2-fluoroethyl)-3-propyl-1H-indazol-5-yl)amino)nicotinamide] | < 0.01 µM | 0.065 to 0.13 µM
9 | CCCc1nn(CC(F)F)c2ccc(Nc3nc(N[C@@H]4CCCC[C@@H]4N)c(F)cc3C(N)=O)cc12 [Example 006-460, 6-(((1R,2S)-2-aminocyclohexyl)amino)-2-((1-(2,2-difluoroethyl)-3-propyl-1H-indazol-5-yl)amino)-5-fluoronicotinamide] | < 0.01 µM | 0.065 to 0.13 µM
10 | CC(C)c1nn(C)c2ccc(Nc3nc(N[C@@H]4CCCC[C@@H]4N)c(F)cc3C(N)=O)cc12 [Example 006-461, 6-(((1R,2S)-2-aminocyclohexyl)amino)-5-fluoro-2-((3-isopropyl-1-methyl-1H-indazol-5-yl)amino)nicotinamide] | < 0.01 µM | 0.065 to 0.13 µM
11 | CCCc1nn(C)c2ccc(Nc3nc(N[C@H](CC4CC4)[C@H](C)N)c(F)cc3C(N)=O)cc12 [Example 006-464, 6-(((2R,3S)-3-amino-1-cyclopropylbutan-2-yl)amino)-5-fluoro-2-((1-methyl-3-propyl-1H-indazol-5-yl)amino)nicotinamide] | < 0.01 µM | 0.065 to 0.13 µM
12 | CCn1nc(C(C)C)c2cc(Nc3nc(N[C@H](CC4CC4)[C@H](C)N)c(F)cc3C(N)=O)ccc21 [Example 006-465, 6-(((2R,3S)-3-amino-1-cyclopropylbutan-2-yl)amino)-2-((1-ethyl-3-isopropyl-1H-indazol-5-yl)amino)-5-fluoronicotinamide] | < 0.01 µM | 0.13 to 0.2 µM
13 | NC(=O)c1cc(F)c(N[C@@H]2CCCC[C@@H]2N)nc1Nc1cnc(N2CCOCC2)c(Cl)c1 [Example 006-466, 6-(((1R,2S)-2-aminocyclohexyl)amino)-2-((5-chloro-6-morpholinopyridin-3-yl)amino)-5-fluoronicotinamide] | 0.01 to 0.05 µM | 0.065 to 0.13 µM
14 | CCn1ncc2cc(Nc3nc(N[C@H](COC)[C@H](C)N)c(F)cc3C(N)=O)ccc21 [Example 006-469, 6-(((2S,3S)-3-amino-1-methoxybutan-2-yl)amino)-2-((1-ethyl-1H-indazol-5-yl)amino)-5-fluoronicotinamide] | < 0.01 µM | < 0.065 µM
15 | COC[C@@H](Nc1nc(Nc2ccnc(OC)c2)c(C(N)=O)cc1F)[C@H](C)N [Example 006-470, 6-(((2S,3S)-3-amino-1-methoxybutan-2-yl)amino)-5-fluoro-2-((2-methoxypyridin-4-yl)amino)nicotinamide] | 0.01 to 0.05 µM | 0.065 to 0.13 µM
16 | CCn1ncc2cc(Nc3nc(N[C@H](C4CC4)[C@H](C)N)c(F)cc3C(N)=O)ccc21 [Example 006-471, 6-(((1R,2S)-2-amino-1-cyclopropylpropyl)amino)-2-((1-ethyl-1H-indazol-5-yl)amino)-5-fluoronicotinamide] | < 0.01 µM | < 0.065 µM
17 | NC(=O)c1cc(F)c(N[C@@H]2CCCC[C@@H]2N)nc1Nc1ccc2c(cnn2C2CC2)c1 [Example 006-472, 6-(((1R,2S)-2-aminocyclohexyl)amino)-2-((1-cyclopropyl-1H-indazol-5-yl)amino)-5-fluoronicotinamide] | < 0.01 µM | 0.065 to 0.13 µM
18 | NC(=O)c1cc(F)c(N[C@@H]2CCCC[C@@H]2N)nc1Nc1ccc2cnn(C3CC3)c2c1 [Example 006-473, 6-(((1R,2S)-2-aminocyclohexyl)amino)-2-((1-cyclopropyl-1H-indazol-6-yl)amino)-5-fluoronicotinamide] | < 0.01 µM | < 0.065 µM
19 | NC(=O)c1cc(F)c(N[C@@H]2CCCC[C@@H]2N)nc1Nc1cccc2c1cnn2C1CC1 [Example 006-474, 6-(((1R,2S)-2-aminocyclohexyl)amino)-2-((1-cyclopropyl-1H-indazol-4-yl)amino)-5-fluoronicotinamide] | < 0.01 µM | 0.065 to 0.13 µM
20 | NC(=O)c1cc(F)c(N[C@@H]2CCCC[C@@H]2N)nc1Nc1ccc2c(c1)c(F)nn2C1CC1 [Example 006-475, 6-(((1R,2S)-2-aminocyclohexyl)amino)-2-((1-cyclopropyl-3-fluoro-1H-indazol-5-yl)amino)-5-fluoronicotinamide] | < 0.01 µM | 0.13 to 0.2 µM
21 | Cc1nn(C2CC2)c2ccc(Nc3nc(N[C@@H]4CCCC[C@@H]4N)c(F)cc3C(N)=O)cc12 [Example 006-477, 6-(((1R,2S)-2-aminocyclohexyl)amino)-2-((1-cyclopropyl-3-methyl-1H-indazol-5-yl)amino)-5-fluoronicotinamide] | < 0.01 µM | 0.13 to 0.2 µM
22 | CCc1nn(C2CC2)c2ccc(Nc3nc(N[C@@H]4CCCC[C@@H]4N)c(F)cc3C(N)=O)cc12 [Example 006-478, 6-(((1R,2S)-2-aminocyclohexyl)amino)-2-((1-cyclopropyl-3-ethyl-1H-indazol-5-yl)amino)-5-fluoronicotinamide] | < 0.01 µM | 0.065 to 0.13 µM
23 | C[C@H](N)[C@@H](CC1CC1)Nc1nc(Nc2ccc3cnn(C4CC4)c3c2)c(C(N)=O)cc1F [Example 006-480, 6-(((2R,3S)-3-amino-1-cyclopropylbutan-2-yl)amino)-2-((1-cyclopropyl-1H-indazol-6-yl)amino)-5-fluoronicotinamide] | < 0.01 µM | 0.13 to 0.2 µM
24 | Cc1ncc(Nc2nc(N[C@H](C3CC3)[C@H](C)N)c(F)cc2C(N)=O)cc1-n1nccn1 [Example 006-483, 6-(((1R,2S)-2-amino-1-cyclopropylpropyl)amino)-5-fluoro-2-((6-methyl-5-(2H-1,2,3-triazol-2-yl)pyridin-3-yl)amino)nicotinamide] | < 0.01 µM | < 0.065 µM
25 | COc1ncc(Nc2nc(N[C@@H]3CCCC[C@@H]3N)c(F)cc2C(N)=O)cc1F [Example 006-484, 6-(((1R,2S)-2-aminocyclohexyl)amino)-5-fluoro-2-((5-fluoro-6-methoxypyridin-3-yl)amino)nicotinamide] | 0.01 to 0.05 µM | 0.065 to 0.13 µM
26 | Cc1nn(C)c2cc(Nc3nc(N[C@H](CC4CC4)[C@H](C)N)c(F)cc3C(N)=O)ccc12 [Example 006-485, 6-(((2R,3S)-3-amino-1-cyclopropylbutan-2-yl)amino)-2-((1,3-dimethyl-1H-indazol-6-yl)amino)-5-fluoronicotinamide] | < 0.01 µM | 0.065 to 0.13 µM
27 | CCn1nc(C)c2ccc(Nc3nc(N[C@H](CC4CC4)[C@H](C)N)c(F)cc3C(N)=O)cc21 [Example 006-486, 6-(((2R,3S)-3-amino-1-cyclopropylbutan-2-yl)amino)-2-((1-ethyl-3-methyl-1H-indazol-6-yl)amino)-5-fluoronicotinamide] | < 0.01 µM | 0.13 to 0.2 µM
28 | COCCn1nc(C)c2ccc(Nc3nc(N[C@H](CC4CC4)[C@H](C)N)c(F)cc3C(N)=O)cc21 [Example 006-487, 6-(((2R,3S)-3-amino-1-cyclopropylbutan-2-yl)amino)-5-fluoro-2-((1-(2-methoxyethyl)-3-methyl-1H-indazol-6-yl)amino)nicotinamide] | < 0.01 µM | 0.13 to 0.2 µM
